Measured values published in patent EP4707280A1, “1,4-CINEOLE DERIVATIVE AND INTERMEDIATE THEREOF, HERBICIDE CONTAINING SAID DERIVATIVE AS ACTIVE INGREDIENT, METHOD FOR USING HERBICIDE, AND METHOD FOR PREPARING AGROCHEMICAL COMPOSITION” (HOKKO CHEMICAL INDUSTRY CO., LTD., priority 2023, dated 2024).

Legend:
Format in all cases: in vivo
Echinochloa crus-galli [1] = assay: Test Example 8: herbicidal effect test by stem and leaf treatment in upland field (low dose); settings: Echinochloa crus-galli; 7.5 g per 10 ares; sprayed seven days after sowing, upland soil; 14 days after application; read-out: weed inhibition rate
Digitaria ciliaris [2] = assay: as above; settings: Digitaria ciliaris; 7.5 g per 10 ares; sprayed seven days after sowing, upland soil; 14 days after application; read-out: weed inhibition rate
Monochoria vaginalis [3] = assay: Test Example 1: herbicidal effect test by soil application in paddy rice; settings: Pontederia vaginalis, soil, 336 h; 120 g active ingredient per 10 ares; applied immediately after sowing, flooded pots; 14 days after application; read-out: weed inhibition rate
Outline: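 Pre-emergence test in puddled, flooded paddy soil (about 3 cm water), 30 seeds per weed sown at 0–1 cm depth in a glass greenhouse. Emulsifiable concentrate diluted in water and dropped onto the pots straight after sowing at 120 g a.i. per 10 ares. Weed inhibition (%) scored at 14 days, in duplicate.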

Chenopodium album = assay: Test Example 3: herbicidal effect test by soil application in upland field; settings: 120 g per 10 ares, sprayed one day after sowing, 14 days after application, read-out: weed inhibition rate
Outline: (§1)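 Pre-emergence test: seeds mixed into top 1 cm of alluvial loam upland soil in pots; emulsifiable concentrate diluted in water sprayed on soil one day after sowing at 100 L/10 a, 120 g a.i./10 a. Weed inhibition rate (%) scored at 14 days, in duplicate.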

Echinochloa crus-galli [4] = assay: as above; settings: Echinochloa crus-galli, 120 g per 10 ares, sprayed one day after sowing, 14 days after application, read-out: weed inhibition rate
Outline: as §1

Amaranthus viridis = assay: as above; settings: Amaranthus viridis, 120 g per 10 ares, sprayed one day after sowing, 14 days after application, read-out: weed inhibition rate
Outline: as §1

Digitaria ciliaris [5] = assay: as above; settings: Digitaria ciliaris, 120 g per 10 ares, sprayed one day after sowing, 14 days after application, read-out: weed inhibition rate
Outline: as §1

Scirpus juncoides [6] = assay: Test Example 6: herbicidal effect test by application during growth period of paddy rice (low dose); settings: Schoenoplectiella juncoides; 7.5 g per 10 ares; applied seven days after sowing, flooded pots; 14 days after application; read-out: weed inhibition rate
Outline: (§2)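 Paddy soil in flooded Wagner pots (about 3 cm water), weeds sown at 0–1 cm, 30 seeds each, grown in a glass greenhouse. Seven days after sowing, water-diluted emulsifiable concentrate was dropped into the water at 7.5 g active ingredient per 10 ares. Weed inhibition rate (%) was scored 14 days after application, in duplicate.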

Monochoria vaginalis [7] = assay: as above; settings: Pontederia vaginalis; 7.5 g per 10 ares; applied seven days after sowing, flooded pots; 14 days after application; read-out: weed inhibition rate
Outline: as §2

Scirpus juncoides [8] = assay: Test Example 2: herbicidal effect test by application during growth period of paddy rice; settings: Schoenoplectiella juncoides; 120 g per 10 ares; applied seven days after sowing, flooded pots; 14 days after application; read-out: weed inhibition rate
Outline: (§3)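 Flooded paddy pot test, greenhouse. Seeds 30/species, 0–1 cm depth, water ~3 cm. EC diluted in water, dropper-applied 7 d post-sowing at 120 g a.i./10 a. Inhibition rate (%) read 14 d after treatment; n=2.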

Monochoria vaginalis [9] = assay: as above; settings: Pontederia vaginalis; 120 g per 10 ares; applied seven days after sowing, flooded pots; 14 days after application; read-out: weed inhibition rate
Outline: as §3

[10] = tested on: Echinochloa crus-galli var. formosensis; assay: as above; settings: Echinochloa crus-galli; 120 g per 10 ares; applied seven days after sowing, flooded pots; 14 days after application; read-out: weed inhibition rate
Outline: as §3

C=C1C[C@]2(C)O[C@@]1(C(C)C)C[C@H]2OCc1ccccc1F [2-88, (1R,4S,5R)-5-((2-fluorobenzyl)oxy)-1-isopropyl-4-methyl-2-methylene-7-oxabicyclo[2.2.1]heptane]
≥ 80%: inhibition at 75 g/ha (Echinochloa crus-galli [1]) | inhibition at 75 g/ha (Digitaria ciliaris [2]) | pest or weed control at 1200 g/ha (Monochoria vaginalis [3]) | inhibition at 1200 g/ha (Chenopodium album) | inhibition at 1200 g/ha (Echinochloa crus-galli [4]) | inhibition at 1200 g/ha (Amaranthus viridis) | inhibition at 1200 g/ha (Digitaria ciliaris [5]) | inhibition at 75 g/ha (Scirpus juncoides [6]) | inhibition at 75 g/ha (Monochoria vaginalis [7]) | inhibition at 1200 g/ha (Scirpus juncoides [8]) | inhibition at 1200 g/ha (Monochoria vaginalis [9]) | inhibition at 1200 g/ha [10]

C=CCO[C@@H]1C[C@]2(C)O[C@@]1(C(C)C)C[C@H]2OCc1ccccc1F [1-930, (1S,2R,4R,5R)-2-[(2-fluorophenyl)methoxy]-1-methyl-4-isopropyl-5-prop-2-enoxy-7-oxabicyclo[2.2.1]heptane]
≥ 80%: inhibition at 75 g/ha (Echinochloa crus-galli [1]) | inhibition at 75 g/ha (Digitaria ciliaris [2]) | pest or weed control at 1200 g/ha (Monochoria vaginalis [3]) | inhibition at 1200 g/ha (Chenopodium album) | inhibition at 1200 g/ha (Echinochloa crus-galli [4]) | inhibition at 1200 g/ha (Amaranthus viridis) | inhibition at 1200 g/ha (Digitaria ciliaris [5]) | inhibition at 75 g/ha (Scirpus juncoides [6]) | inhibition at 75 g/ha (Monochoria vaginalis [7]) | inhibition at 1200 g/ha (Scirpus juncoides [8]) | inhibition at 1200 g/ha (Monochoria vaginalis [9]) | inhibition at 1200 g/ha [10]

CC(C)[C@]12C=C[C@](C)(O1)C(OCc1ccccc1F)C2 (mixture of isomers) [3-5, (1R,4S,SR)-5-[(2-fluorophenyl)methoxy]-4-methyl-1-isopropyl-7-oxabicyclo[2.2.1]hept-2-ene]
≥ 80%: inhibition at 75 g/ha (Echinochloa crus-galli [1]) | inhibition at 75 g/ha (Digitaria ciliaris [2]) | pest or weed control at 1200 g/ha (Monochoria vaginalis [3]) | inhibition at 1200 g/ha (Chenopodium album) | inhibition at 1200 g/ha (Echinochloa crus-galli [4]) | inhibition at 1200 g/ha (Amaranthus viridis) | inhibition at 1200 g/ha (Digitaria ciliaris [5]) | inhibition at 75 g/ha (Scirpus juncoides [6]) | inhibition at 75 g/ha (Monochoria vaginalis [7]) | inhibition at 1200 g/ha (Scirpus juncoides [8]) | inhibition at 1200 g/ha (Monochoria vaginalis [9]) | inhibition at 1200 g/ha [10]

CC(C)[C@]12C[C@@H](OCc3c(F)cccc3F)[C@](C)(C[C@@H]1O)O2 [1-41, (1R,2S,4S,5R)-5-((2,6-difluorobenzyl)oxy)-1-isopropyl-4-methyl-7-oxabicyclo[2,2,1]heptan-2-ol]
≥ 80%: inhibition at 75 g/ha (Echinochloa crus-galli [1]) | inhibition at 75 g/ha (Digitaria ciliaris [2]) | pest or weed control at 1200 g/ha (Monochoria vaginalis [3]) | inhibition at 1200 g/ha (Chenopodium album) | inhibition at 1200 g/ha (Echinochloa crus-galli [4]) | inhibition at 1200 g/ha (Amaranthus viridis) | inhibition at 1200 g/ha (Digitaria ciliaris [5]) | inhibition at 75 g/ha (Scirpus juncoides [6]) | inhibition at 1200 g/ha (Scirpus juncoides [8]) | inhibition at 1200 g/ha (Monochoria vaginalis [9]) | inhibition at 1200 g/ha [10]

C#CCO[C@@H]1C[C@]2(C)O[C@@]1(C(C)C)C[C@H]2OCc1ccccc1F [1-931, (1S,2R,4R,5R)-2-[(2-fluorophenyl)methoxy]-1-methyl-4-isopropyl-5-prop-2-ynoxy-7-oxabicyclo[2.2.1]heptane]
≥ 80%: inhibition at 75 g/ha (Echinochloa crus-galli [1]) | inhibition at 75 g/ha (Digitaria ciliaris [2]) | pest or weed control at 1200 g/ha (Monochoria vaginalis [3]) | inhibition at 1200 g/ha (Chenopodium album) | inhibition at 1200 g/ha (Echinochloa crus-galli [4]) | inhibition at 1200 g/ha (Amaranthus viridis) | inhibition at 1200 g/ha (Digitaria ciliaris [5]) | inhibition at 75 g/ha (Scirpus juncoides [6]) | inhibition at 75 g/ha (Monochoria vaginalis [7]) | inhibition at 1200 g/ha (Scirpus juncoides [8]) | inhibition at 1200 g/ha (Monochoria vaginalis [9]) | inhibition at 1200 g/ha [10]

CC(C)[C@]12C[C@@H](OCc3ccccc3F)[C@](C)(CC1OCC1CC1)O2 (mixture of isomers) [1-921, (1S,2R,4R,SR)-5-(cyclopropylmethoxy)-2-[(2-fluorophenyl)methoxy]-1-methyl-4-isopropyl-7-oxabicyclo[2.2.1]heptane]
≥ 80%: inhibition at 75 g/ha (Echinochloa crus-galli [1]) | inhibition at 75 g/ha (Digitaria ciliaris [2]) | pest or weed control at 1200 g/ha (Monochoria vaginalis [3]) | inhibition at 1200 g/ha (Chenopodium album) | inhibition at 1200 g/ha (Echinochloa crus-galli [4]) | inhibition at 1200 g/ha (Amaranthus viridis) | inhibition at 1200 g/ha (Digitaria ciliaris [5]) | inhibition at 75 g/ha (Scirpus juncoides [6]) | inhibition at 75 g/ha (Monochoria vaginalis [7]) | inhibition at 1200 g/ha (Scirpus juncoides [8]) | inhibition at 1200 g/ha (Monochoria vaginalis [9]) | inhibition at 1200 g/ha [10]

CC(C)[C@]12C[C@@H](OCc3ccccc3F)[C@](C)(C[C@@H]1F)O2 [1-5, (1R,2S,4S,5R)-2-fluoro-5-((2-fluorobenzyl)oxy)-1-isopropyl-4-methyl-7-oxabicyclo[2.2.1]heptane]
≥ 80%: inhibition at 75 g/ha (Echinochloa crus-galli [1]) | inhibition at 75 g/ha (Digitaria ciliaris [2]) | pest or weed control at 1200 g/ha (Monochoria vaginalis [3]) | inhibition at 1200 g/ha (Chenopodium album) | inhibition at 1200 g/ha (Echinochloa crus-galli [4]) | inhibition at 1200 g/ha (Digitaria ciliaris [5]) | inhibition at 75 g/ha (Scirpus juncoides [6]) | inhibition at 75 g/ha (Monochoria vaginalis [7]) | inhibition at 1200 g/ha (Scirpus juncoides [8]) | inhibition at 1200 g/ha (Monochoria vaginalis [9]) | inhibition at 1200 g/ha [10]

C=C1C[C@]2(C)O[C@@]1(C(C)C)C[C@H]2OCc1ccccc1C [2-72, (1R,4S,5R)-1-isopropyl-4-methyl-5-((2-methylbenzyl)oxy)-2-methylene-7-oxabicyclo[2.2.1]heptane]
≥ 80%: inhibition at 75 g/ha (Echinochloa crus-galli [1]) | inhibition at 75 g/ha (Digitaria ciliaris [2]) | pest or weed control at 1200 g/ha (Monochoria vaginalis [3]) | inhibition at 1200 g/ha (Chenopodium album) | inhibition at 1200 g/ha (Echinochloa crus-galli [4]) | inhibition at 1200 g/ha (Amaranthus viridis) | inhibition at 1200 g/ha (Digitaria ciliaris [5]) | inhibition at 75 g/ha (Scirpus juncoides [6]) | inhibition at 75 g/ha (Monochoria vaginalis [7]) | inhibition at 1200 g/ha (Scirpus juncoides [8]) | inhibition at 1200 g/ha (Monochoria vaginalis [9]) | inhibition at 1200 g/ha [10]

Cc1ccccc1CO[C@@H]1C[C@]2(C(C)C)O[C@@]1(C)CC2=O [2-3, (1R,4S,5R)-1-isopropyl-4-methyl-5-((2-methylbenzyl)oxy)-7-oxabicyclo[2.2.1]heptan-2-one]
≥ 80%: inhibition at 75 g/ha (Echinochloa crus-galli [1]) | inhibition at 75 g/ha (Digitaria ciliaris [2]) | pest or weed control at 1200 g/ha (Monochoria vaginalis [3]) | inhibition at 1200 g/ha (Chenopodium album) | inhibition at 1200 g/ha (Echinochloa crus-galli [4]) | inhibition at 1200 g/ha (Digitaria ciliaris [5]) | inhibition at 75 g/ha (Scirpus juncoides [6]) | inhibition at 75 g/ha (Monochoria vaginalis [7]) | inhibition at 1200 g/ha (Scirpus juncoides [8]) | inhibition at 1200 g/ha (Monochoria vaginalis [9]) | inhibition at 1200 g/ha [10]

CO[C@H]1C[C@]2(C)O[C@@]1(C(C)C)C[C@H]2OCc1ccccc1F [1-156, (1S,2R,4R,5S)-2-((2-fluorobenzyl)oxy)-4-isopropyl-5-methoxy-1-methyl-7-oxabicyclo[2.2.1]heptane]
≥ 80%: inhibition at 75 g/ha (Echinochloa crus-galli [1]) | inhibition at 75 g/ha (Digitaria ciliaris [2]) | pest or weed control at 1200 g/ha (Monochoria vaginalis [3]) | inhibition at 1200 g/ha (Chenopodium album) | inhibition at 1200 g/ha (Echinochloa crus-galli [4]) | inhibition at 1200 g/ha (Amaranthus viridis) | inhibition at 1200 g/ha (Digitaria ciliaris [5]) | inhibition at 75 g/ha (Scirpus juncoides [6]) | inhibition at 75 g/ha (Monochoria vaginalis [7]) | inhibition at 1200 g/ha (Scirpus juncoides [8]) | inhibition at 1200 g/ha (Monochoria vaginalis [9]) | inhibition at 1200 g/ha [10]

CC(C)[C@]12C[C@@H](OCc3ccccc3F)[C@](C)(CC1=O)O2 [2-9, (1R,4S,5R)-5-((2-fluorobenzyl)oxy)-1-isopropyl-4-methyl-7-oxabicyclo[2.2.1]heptan-2-one]
≥ 80%: inhibition at 75 g/ha (Echinochloa crus-galli [1]) | inhibition at 75 g/ha (Digitaria ciliaris [2]) | pest or weed control at 1200 g/ha (Monochoria vaginalis [3]) | inhibition at 1200 g/ha (Chenopodium album) | inhibition at 1200 g/ha (Echinochloa crus-galli [4]) | inhibition at 1200 g/ha (Amaranthus viridis) | inhibition at 1200 g/ha (Digitaria ciliaris [5]) | inhibition at 75 g/ha (Scirpus juncoides [6]) | inhibition at 75 g/ha (Monochoria vaginalis [7]) | inhibition at 1200 g/ha (Scirpus juncoides [8]) | inhibition at 1200 g/ha (Monochoria vaginalis [9]) | inhibition at 1200 g/ha [10]

CC(C)[C@]12C[C@@H](OCc3ccccc3F)[C@](C)(C[C@@H]1O)O2 [1-30, (1R,2S,4S,5R)-5-((2-fluorobenzyl)oxy)-1-isopropyl-4-methyl-7-oxabicyclo[2.2.1]heptan-2-ol]
≥ 80%: inhibition at 75 g/ha (Echinochloa crus-galli [1]) | inhibition at 75 g/ha (Digitaria ciliaris [2]) | pest or weed control at 1200 g/ha (Monochoria vaginalis [3]) | inhibition at 1200 g/ha (Chenopodium album) | inhibition at 1200 g/ha (Echinochloa crus-galli [4]) | inhibition at 1200 g/ha (Amaranthus viridis) | inhibition at 1200 g/ha (Digitaria ciliaris [5]) | inhibition at 75 g/ha (Scirpus juncoides [6]) | inhibition at 1200 g/ha (Scirpus juncoides [8]) | inhibition at 1200 g/ha (Monochoria vaginalis [9]) | inhibition at 1200 g/ha [10]
